Data taken from patent publication US6677371B1, “4-oxybenzopyran derivative” (Nissan Chemical Industries, Ltd., priority 1999, dated 2004).

For `CC(=O)Nc1cc2c(cc1[N+](=O)[O-])OC(C)(C)[C@@H](O)[C@@H]2OCCc1ccccc1` (relative stereo) [Synthesis example 2, Trans-6-acetylamino-3,4-dihydro-2,2-dimethyl-7-nitro-4-(2-phenylethoxy)-2H-1-benzopyran-3-ol], which melting point is on record?
Its melting point is 123.5 to 127 °C.
